From PMC9837764 (Nature Communications, 2023)
Where “and” joins values, the source holds several entries; their conditions need not be identical. Equal values may be shown once.

Tests used:
[1] = test system: mouse bone marrow erythrocytes; details: Positive Control 25 mg/Kg i.p.
SARS-CoV-2 [2] = experiment: Combination of RdRp inhibitors with SARS-CoV-2 nsp14 inhibitors in infected Calu-3 cells, synergy; assay type: cell-based; set-up: EC99 mean: unit not given here; details: for Response (Fig3C source data for synergy analysis): MB-905 0 nM; for EC50: Severe acute respiratory syndrome coronavirus 2, Calu-3, read-out: EC50 mean
[3] = human, in vivo; cited from earlier work
SARS-CoV-2 [4] = experiment: Cell-associated virus RNA in SARS-CoV-2-infected human primary monocytes; assay type: cell-based; details: for Cell-associated virus RNA levels in SARS-CoV-2-infected monocytes: Fig. 1c; for Cell-associated virus RNA loads, inhibition (Fig1C source data, per donor): monocytes
Protocol: (§1) Human primary monocytes were obtained after 3 h of plastic adherence of peripheral blood mononuclear cells (PBMCs). The use of primary human cell was approved by Institutional Review Board from the Oswaldo Cruz Foundation under protocol 49971421.8.0000.5248 with signed informed consent in accordance with the Hemotherapy Service of Hospital Clementino Fraga from the Federal University of Rio de Janeiro. All volunteers were de-identified. PBMCs were isolated from healthy donors by density gradient centrifugation (Ficoll-Paque, GE Healthcare). PBMCs (2.0 × 10^6 cells) were plated onto 48-well plates (NalgeNunc) in RPMI-1640 without serum for 2–4 h. Nonadherent cells were removed, and the remaining monocytes were maintained in DMEM with 5% human serum (HS; Millipore) and penicillin/streptomycin. The purity of human monocytes was above 95%, as determined by flow cytometric analysis (FACScan; Becton Dickinson) using anti-CD3 (BD Biosciences, cat # 555342, 1:40), anti-CD16 (Southern Biotech, cat # 561313, 1:20) and APC mouse IgG2a isotype (BD Biosciences, cat # 550882, 1/40) and PE mouse IgG1 isotype (BD Biosciences, 555749, 1/20).
Total viral RNA from a culture supernatant and/or monolayers was extracted using QIAamp Viral RNA (Qiagen®) according to the manufacturer’s instructions. Quantitative RT‒PCR was performed using GoTaq® Probe qPCR and RT-qPCR Systems (Promega) in a StepOne™ Real-Time PCR System (Thermo Fisher Scientific) ABI PRISM 7500 Sequence Detection System (Applied Biosystems). Amplifications were carried out in 25 µL reaction mixtures containing 2× reaction mix buffer, […] of each primer, 10 µM of probe, and 5 µL of RNA template. Primers, probes, and cycling conditions recommended by the Centers for Disease Control and Prevention (CDC) protocol were used to detect SARS-CoV-2[52]. The standard curve method was employed for virus quantification. For reference to the cell amounts used, the housekeeping gene RNAse P (F-5′-[…] -3′, R-5′[…] -3′, P-5′-FAM-[…] -BHQ-1-3′) was amplified. The Ct values for this target were compared to those obtained for different cell amounts, 10^7 to 10^2, for calibration.

SARS-CoV-2 [5] = experiment: Yield-reduction assay, SARS-CoV-2 in Calu-3 cells (titers as PFU/mL in Vero cells); details: for Inhibition of SARS-CoV-2 infectious titers (Fig1B source data, replicates): additional treatment at 24 h; for Inhibition of SARS-CoV-2 infectious titers (Fig1A source data, replicates): one treatment
in vitro = details: human
Protocol: (§2) Monolayers of 1.5 × 10^4 cells in 96-well plates were treated for 3 days with various concentrations (semilog dilutions from 1000 to 10 µM) of the antiviral drugs. Then, 5 mg/ml 2,3-bis-(2-methoxy-4-nitro-5-sulfophenyl)−2H-tetrazolium-5-carboxanilide (XTT) in DMEM was added to the cells in the presence of 0.01% N-methyl dibenzopyrazine methyl sulfate (PMS).

SARS-CoV-2 [6] = experiment: Genomic and subgenomic viral RNA in infected Calu-3 cells (RT-PCR); assay type: cell-based; details: Calu-3, 10 µM, 48 h
Calu-3 cells = details: human
Protocol: as §2

TNF-α = TNF-α in supernatant of SARS-CoV-2-infected human primary monocytes; assay type: cell-based; details: infected monocytes, drugs at 10 µM, 24 h
Protocol: as §1

IL-6 = IL-6 in supernatant of SARS-CoV-2-infected human primary monocytes; assay type: cell-based; details: infected monocytes, drugs at 10 µM, 24 h
Protocol: as §1

Human primary monocytes = experiment: Monocyte viability (LDH in supernatant); assay type: cell-based; details: 10 µM
From the text: Cellular Viability (%) Remdesivir
Supplementary Fig. 3. Citotoxicity of the compounds.
DMEM containing 2% fetal bovine serum.
Monocytes at a density of 1.5

[7] = infected Calu-3, compound alone at 10 uM
[8] = Severe acute respiratory syndrome coronavirus 2, Calu-3
[9] = Severe acute respiratory syndrome coronavirus 2, Calu-3, 24 h
[10] = Drug 0.001, Calu-3, MOI 0.1, 48 h

Structure (SMILES) | EC50 (SARS-CoV-2 [2]) [µM] | Cell-associated virus RNA levels in SARS-CoV-2-infected monocytes (SARS-CoV-2 [4]) | Cell-associated virus RNA loads, inhibition (Fig1C source data, per donor) (SARS-CoV-2 [4]; 24 h, Drug 1) | Cell-associated virus RNA loads, inhibition (Fig1C source data, per donor) (SARS-CoV-2 [4]; 24 h, Drug 10) | Cell-associated virus RNA loads, inhibition (Fig1C source data, per donor) (SARS-CoV-2 [4]; MOI 0.1, 24 h, Drug 0.1) | EC50 (SARS-CoV-2 [5]; [8]) [µM] | EC50 (SARS-CoV-2 [5]; [9]) [µM] | Inhibition of SARS-CoV-2 infectious titers (Fig1A source data, replicates) (SARS-CoV-2 [5]; [10]) | Inhibition of SARS-CoV-2 infectious titers (Fig1A source data, replicates) (SARS-CoV-2 [5]; Drug 0.01) | Inhibition of SARS-CoV-2 infectious titers (Fig1A source data, replicates) (SARS-CoV-2 [5]; Drug 0.1) | Inhibition of SARS-CoV-2 infectious titers (Fig1A source data, replicates) (SARS-CoV-2 [5]; Drug 1) | Inhibition of SARS-CoV-2 infectious titers (Fig1A source data, replicates) (SARS-CoV-2 [5]; Drug 10) | CC50 (in vitro) [µM] | CC50 (Calu-3 cells) [µM] | also measured
O=P1(N(CCCl)CCCl)NCCCO1 (stereo not shown) [Cyclophosphamide, reference compound] | – | – | – | – | – | – | – | – | – | – | – | – | – | – | MNPCE/4,000 PCE (Mean ± S.D.) [1]: 16.20 ± 6.03; Ratio PCE/NCE (Mean ± S.D.) [1]: 1.44 ± 0.29
C[C@@H]1CCO[C@H]2Cn3cc(C(=O)NCc4ccc(F)cc4F)c(=O)c(O)c3C(=O)N12 [DTG, dolutegravir] | 5.3 | – | – | – | – | – | – | – | – | – | – | – | – | – | Response (Fig3C source data for synergy analysis) (SARS-CoV-2 [2]; DTG 1000 nM): 14; Response (Fig3C source data for synergy analysis) (SARS-CoV-2 [2]; DTG 5000 nM): 53; Response (Fig3C source data for synergy analysis) (SARS-CoV-2 [2]; DTG 10000 nM): 74; Response (Fig3C source data for synergy analysis) (SARS-CoV-2 [2]; DTG 15000 nM): 75; Effects on SARS-CoV-2 replication (SARS-CoV-2 [2]; alone at 5 µM, Calu-3): marginal effects; Virus productive titers (Fig3B source data, replicates) (SARS-CoV-2 [2]; infected Calu-3, DTG alone at 5uM): 224000 and 448000; Cmax [3]: 15 µM; Plasma concentration at Cmin [3]: 1.5 µM
OC[C@H]1O[C@@H](n2cnc3c(NCc4ccco4)ncnc32)[C@H](O)[C@@H]1O [MB-801, Kinetin riboside] | – | reduced cell-associated virus RNA levels in a concentration-dependent manner | 36 and 65 and 10 and 20 and 30 and 40 | 33 and 76 and 10 and 20 and 30 and 36 | 17 and 66 and 24 and 12 and 9 and 25 | 0.18 ± 0.02 | 0.02 ± 0.003 | 2 and 4 and 5 | 27 and 20 and 32 | 40 and 53 and 50 | 63 and 67 and 57 | 95 and 94 and 72 | 550 ± 32 | 530 ± 65 | Virus productive titers (Fig3A source data, replicates) (SARS-CoV-2 [2]; [7]): 32000 and 36000 and 38000; Virus productive titers (Fig3B source data, replicates) (SARS-CoV-2 [2]; [7]): 32000 and 36000 and 38000; Inhibition of SARS-CoV-2 infectious titers (Fig1B source data, replicates) (SARS-CoV-2 [5]; Drug 0.001, Calu-3, 48 h): 18 and 20 and 16; Inhibition of SARS-CoV-2 infectious titers (Fig1B source data, replicates) (SARS-CoV-2 [5]; Drug 0.01): 39 and 40 and 54; Inhibition of SARS-CoV-2 infectious titers (Fig1B source data, replicates) (SARS-CoV-2 [5]; Drug 0.1): 62 and 60 and 58; Inhibition of SARS-CoV-2 infectious titers (Fig1B source data, replicates) (SARS-CoV-2 [5]; Drug 1): 81 and 86 and 58; Inhibition of SARS-CoV-2 infectious titers (Fig1B source data, replicates) (SARS-CoV-2 [5]; Drug 10): 98 (2×) and 99; Genomic viral RNA (Fig2B source data, replicates) (SARS-CoV-2 [6]): 0.3 and 0.1 and 0.22; Subgenomic viral RNA (Fig2B source data, replicates) (SARS-CoV-2 [6]): 0.5 and 0.45 and 0.56; TNF-α levels in the culture supernatant (Fig1D source data, per donor) (TNF-α): 1.6 and 1.8 and 0.638 and 4.1 and 2.6; IL-6 levels in the culture supernatant (Fig1E source data, per donor) (IL-6): 2.2 and 1.8 and 0.121 and 4.3 and 3.4 and 0.355 and 1.5 and 2.9
CC(C)C(=O)OC[C@H]1O[C@@H](n2ccc(NO)nc2=O)[C@H](O)[C@@H]1O [MK-4482, molnupiravir, reference compound] | 0.8 | relatively low activity | 25 (2×) and 23 | 1 | 12 (2×) and 18 | 0.72 ± 0.12 | 0.02 ± 0.008 | 3 and 4 and 5 | 13 and 6 and 16 | 48 and 30 and 35 | 71 and 60 and 50 | 100 and 99 and 95 | 58 ± 18 | 53 ± 12 | Monocyte viability (Human primary monocytes): drastically reduced; EC99 mean (SARS-CoV-2 [2]; Calu-3 cells, alone or with nsp14 inhibitor at the concentration of the label, unit not given): 9; EC90 (SARS-CoV-2 [2]; Severe acute respiratory syndrome coronavirus 2, Calu-3, read-out: EC90 mean): 7 µM
